In the supplement of paper PMC10307832:

How the values were obtained:
Experiment in all cases: relative viability (nuclei count vs DMSO), 5 days (fraction); higher = more cells survive
[1] = compound: C1=CC=C2C(=C1)C=CC(=C2SSC3=C(C=CC4=CC=CC=C43)O)O [IPA-3] + CC(C)C[C@H](NC(=O)[C@H](Cc1ccccc1)NC(=O)c1cnccn1)B(O)O [Bortezomib] (partner 0.002 µM)
How it was run: (§1)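 Lung cancer cell lines, seeded in 1536-well plates, were treated the following day by pin tool with a single drug or with five library-drug doses (not always all listed) in √10 steps on top of a fixed anchor-drug dose. Cells were fixed and nuclei stained in one step after 5 days, and nuclei were counted. Relative viability is the nuclei count for treated wells divided by that for vehicle wells, reported as medians of duplicate plates.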

[2] = compound: C1=CC=C2C(=C1)C=CC(=C2SSC3=C(C=CC4=CC=CC=C43)O)O [IPA-3] + Cc1cc(Nc2cc(N3CCN(C)CC3)nc(Sc3ccc(NC(=O)C4CC4)cc3)n2)n[nH]1 [Tozasertib] (partner 0.1 µM)
How it was run: as §1

[3] = compound: Cc1ccc(-n2nc(C(C)(C)C)cc2NC(=O)Nc2ccc(OCCN3CCOCC3)c3ccccc23)cc1 [Doramapimod] + N=C(N)NC(=N)NCCc1ccccc1 [Phenformin] (partner 250 µM)
How it was run: as §1

[4] = compound: Cc1ccc(-n2nc(C(C)(C)C)cc2NC(=O)Nc2ccc(OCCN3CCOCC3)c3ccccc23)cc1 [Doramapimod] + Nc1ncn([C@H]2C[C@H](O)[C@@H](CO)O2)c(=O)n1 [Decitabine] (partner 2 µM)
How it was run: as §1

Row | Cell Line | relative viability ([1]; first compound 0.2 µM) | relative viability ([1]; first compound 0.6325 µM) | relative viability ([1]; first compound 2 µM) | relative viability ([1]; first compound 6.325 µM) | relative viability ([1]; first compound 20 µM) | relative viability ([2]; first compound 0.2 µM) | relative viability ([2]; first compound 0.6325 µM) | relative viability ([2]; first compound 2 µM) | relative viability ([2]; first compound 6.325 µM) | relative viability ([2]; first compound 20 µM) | relative viability ([3]; first compound 0.02 µM) | relative viability ([3]; first compound 0.06325 µM) | relative viability ([3]; first compound 0.2 µM) | relative viability ([3]; first compound 0.6325 µM) | relative viability ([3]; first compound 2 µM) | relative viability ([4]; first compound 0.02 µM) | relative viability ([4]; first compound 0.06325 µM) | relative viability ([4]; first compound 0.2 µM) | relative viability ([4]; first compound 0.6325 µM) | relative viability ([4]; first compound 2 µM)
1 | 201T | 1.08 | 0.931 | 1.08 | 1.12 | 1.13 | 0.99 | 1 | 0.908 | 0.922 | 1.06 | 0.453 | 0.471 | 0.448 | 0.497 | 0.394 | 0.857 | 0.863 | 0.886 | 0.921 | 0.925
2 | A549 | – | – | – | – | – | – | – | – | – | – | 0.177 | 0.165 | 0.126 | 0.136 | 0.132 | 0.235 | 0.309 | 0.312 | 0.175 | 0.278
3 | A-427 | 0.976 | 0.974 | 1.01 | 0.942 | 1.01 | 0.18 | 0.242 | 0.201 | 0.224 | 0.248 | 0.269 | 0.464 | 0.388 | – | 0.318 | 0.588 | 0.557 | 0.536 | – | 0.541
4 | ABC-1 | 0.297 | 0.345 | – | 0.295 | 0.257 | 0.18 | 0.183 | 0.19 | 0.188 | 0.185 | 0.208 | 0.232 | 0.278 | 0.281 | 0.221 | 1 | 1.19 | 0.983 | 0.959 | 1.01
5 | BEN | 0.807 | 0.707 | 0.806 | 0.823 | 0.799 | 0.528 | 0.582 | 0.48 | 0.5 | 0.588 | 0.29 | 0.245 | 0.27 | 0.242 | 0.278 | 0.69 | 0.769 | 0.799 | 0.512 | 0.675
6 | CAL-12T | 0.956 | 0.987 | 0.847 | 0.935 | 1.15 | 0.371 | 0.301 | 0.384 | 0.343 | 0.297 | 0.552 | 0.593 | 0.621 | 0.625 | 0.479 | – | – | – | – | –
7 | COR-L23 | 1.12 | 0.946 | 1.06 | 0.939 | 0.802 | 0.197 | 0.201 | 0.344 | 0.25 | 0.165 | 0.436 | 0.467 | 0.398 | 0.422 | 0.391 | 0.409 | 0.412 | 0.507 | 0.432 | 0.41
8 | COR-L 105 | 0.856 | 0.885 | 0.7 | 0.879 | 0.603 | 0.335 | 0.463 | 0.32 | 0.403 | 0.342 | 0.513 | 0.461 | 0.443 | 0.619 | 0.453 | 0.602 | 0.641 | 0.718 | 0.802 | 0.676
9 | Calu-6 | 1.02 | 1.04 | 0.895 | 0.959 | 0.837 | – | – | – | – | – | – | – | – | – | – | – | – | – | – | –
10 | ChaGo-K-1 | 1.03 | 1.1 | 0.861 | 1.08 | 1.31 | 0.228 | 0.236 | 0.231 | 0.221 | 0.251 | 0.476 | 0.507 | 0.459 | 0.534 | 0.428 | 0.555 | 0.54 | 0.541 | 0.49 | 0.503
11 | EBC-1 | 0.488 | 0.548 | 0.546 | 0.546 | 0.581 | – | – | – | – | – | – | – | – | – | – | – | – | – | – | –
12 | EKVX | 1.31 | 0.995 | 1.12 | 0.988 | 1.54 | 0.463 | 0.42 | 0.447 | 0.375 | 0.422 | 0.256 | 0.24 | 0.253 | 0.179 | 0.204 | 0.404 | 0.313 | 0.289 | 0.31 | 0.239
13 | EMC-BAC-2 | 1.16 | 1.11 | 1.04 | 1.04 | 1.22 | 0.279 | 0.296 | 0.312 | 0.303 | 0.269 | 0.53 | 0.606 | 0.586 | 0.678 | 0.503 | 1 | 0.905 | 0.99 | 0.955 | 0.858
14 | EPLC-272H | 0.87 | 0.95 | 0.816 | 0.861 | 1.13 | 0.441 | 0.338 | 0.332 | 0.311 | 0.506 | 0.294 | 0.243 | 0.356 | 0.291 | 0.274 | 0.377 | 0.389 | 0.361 | – | 0.394
15 | H3255 | 0.818 | 0.709 | 0.601 | 0.754 | 0.846 | 0.595 | 0.655 | 0.652 | 0.602 | 0.741 | 0.356 | 0.345 | 0.391 | 0.366 | 0.411 | 0.688 | 0.581 | 0.767 | – | 0.569
16 | HARA | 1.16 | 1.06 | 1.13 | 1.01 | 1.24 | 0.133 | 0.132 | 0.153 | 0.485 | 0.118 | 0.464 | 0.495 | 0.464 | – | 0.425 | 0.52 | 0.463 | 0.49 | 0.574 | 0.42
17 | HCC-15 | 1.34 | 0.99 | 0.838 | 1.02 | 1.21 | 0.61 | 0.367 | 0.457 | 0.431 | 0.442 | 0.481 | 0.467 | 0.478 | – | 0.365 | 0.64 | 0.621 | 0.63 | 0.645 | 0.681
18 | HCC-44 | 0.918 | 0.852 | 0.897 | 0.894 | 0.835 | 1.09 | 0.953 | 0.996 | 0.71 | 0.93 | 0.267 | 0.247 | 0.22 | – | 0.241 | 0.958 | 0.984 | 1.03 | 0.945 | 0.978
